The values that follow come from the supplement of paper PMC10307832.

Test in all cases: relative viability (nuclei count vs DMSO), 5 days (fraction); higher = more cells survive
Compound in test [1]: C#Cc1cccc(Nc2ncnc3cc(OC)c(OCCCCCCC(=O)NO)cc23)c1 [CUDC-101] + COc1cccc2cc(-c3nc([C@H]4CC[C@H](C(=O)O)CC4)n4ncnc(N)c34)[nH]c12 [OSI-027] (partner 0.5 µM)
In a few lines:
(§1)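 Medians of duplicate plates are given as relative viability. That measure is the nuclei count in treated wells divided by the count in vehicle wells. Counts were taken on 4× images of lung cancer cell lines in 1536-well plates, 5 days after pin-tool dosing the day after seeding with one drug alone or a fixed anchor-drug dose plus five library-drug doses (not always all listed) in √10 steps.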

Compound in test [2]: C#Cc1cccc(Nc2ncnc3cc(OC)c(OCCCCCCC(=O)NO)cc23)c1 [CUDC-101] + O=C(c1cc(Cc2n[nH]c(=O)c3ccccc23)ccc1F)N1CCN(C(=O)C2CC2)CC1 [Olaparib] (partner 8 µM)
In a few lines:
as §1

Compound in test [3]: C1=CC=C2C(=C1)N=C(S2)C(C#N)C3=NC(=NC=C3)NCCC4=CN=CC=C4 + O=C(CCCCCCC(=O)Nc1ccccc1)NO [Vorinostat] (partner 1 µM)
In a few lines:
as §1

Compound in test [4]: COc1cc(N2CCC(N3CCN(C)CC3)CC2)ccc1Nc1ncc(Cl)c(Nc2ccccc2S(=O)(=O)C(C)C)n1 [NVP-TAE684] + N=C(N)NC(=N)NCCc1ccccc1 [Phenformin] (partner 250 µM)
In a few lines:
as §1

Consider UMC-11, for which the relative viability was determined as 0.505 in test [1] (first compound 0.01 µM); 0.521 in test [1] (first compound 0.03162 µM); 0.426 in test [1] (first compound 0.1 µM); 0.172 in test [1] (first compound 0.3162 µM); 0.105 in test [1] (first compound 1 µM); 0.29 in test [2] (first compound 0.01 µM). Moreover, the relative viability was found to be 0.707 in test [2] (first compound 0.03162 µM); 0.377 in test [2] (first compound 0.1 µM); 0.237 in test [2] (first compound 0.3162 µM); 0.119 in test [2] (first compound 1 µM); 0.36 in test [3] (first compound 0.01581 µM); 0.402 in test [3] (first compound 0.05 µM). The relative viability was determined as 0.42 in test [3] (first compound 0.1581 µM); 0.422 in test [3] (first compound 0.5 µM); 0.355 in test [4] (first compound 0.2 µM); 0.32 in test [4] (first compound 0.6325 µM); 0.268 in test [4] (first compound 2 µM).
